Results on nine compounds are retold here after patent US8575359B2, “Acid-sensitive linkers for drug delivery” (The Regents of the University of California, priority 2006, dated 2013).

pIC50: −log10 of the molar value. Read-outs that look alike come from different tables or passages of the source.

This experiment has as its system human ovarian carcinoma 2008 cells. Kind of experiment: Cytotoxicity (colony formation assay) on human ovarian carcinoma 2008 cells. The class given is cell-based. As to the method: Cells were exposed to various concentrations of 10 for 1 hour and survival was determined after a further […] period of growth in drug-free medium.
Human ovarian carcinoma 2008 cells were plated in 6-well plates at a density of 200 cells in 3 mL of media (RPMI-1640+10% Fetal Bovine Serum) per well and incubated overnight to allow the cells to adhere to the bottom of the wells. After overnight incubation the media was removed from each well and fresh growth media containing different concentrations of 10 was added to the wells. The cells were incubated for 1 hour in the presence of 10. Following the removal of the solutions containing 10, the cells were incubated with fresh media for […] to allow surviving cells to form colonies. […] Clusters containing >50 cells were scored as colonies using an AlphaInontech Imager. The colony formation assay was performed in triplicate on 3 independent occasions.
Chem. Int. Ed. 2004, 43, 739-742. Norrisolide Core (5, 11 μmol) was dissolved in 0.5 mL of dichloromethane (DCM). 4-carboxybenzaldehye (19 μmol), N,N′-dicyclohexylcarbodiimide (DCC, 19 μmol) and Dimethylaminopyridine (DMAP, 1 crystal) was added and stirred overnight at 23° C.

The mark [1] stands for this setting: Table 3, human ovarian carcinoma 2008 cells, read-out: IC50.
The mark [2] stands for this setting: human ovarian carcinoma 2008 cells, relative to compound 10.

`CCOC(c1ccccc1)n1ccnc1` (stereo not drawn) [Compound 1, N-ethoxybenzylimidazole]: under setting [1], the pIC50 (in general, −log10 of the IC50, conventionally taken in molar units) is 8.00.

On to `CCOC(c1ccc(Br)cc1)n1ccnc1` (stereo not drawn) [Compound 2], for which the negative logarithm of the IC50 (pIC50) under setting [1] is 5.05.

Regarding `CCOC(c1ccc([N+](=O)[O-])cc1)n1ccnc1` (stereo not drawn) [Compound 3], the pIC50 under setting [1] is 7.00.

As for `CCCCc1ccc(C(OCC)n2ccnc2)cc1` (stereo not drawn) [Compound 4], the pIC50 under setting [1] is 6.60.

For the compound `CCOC(c1ccccc1Br)n1ccnc1` (stereo not drawn) [Compound 5], the pIC50 under setting [1] is 4.28.

For the compound `CCOC(c1ccccc1OC)n1ccnc1` (stereo not drawn) [Compound 6], the pIC50 under setting [1] is 4.26.

In the case of `COc1cccc2c1C(=O)c1c(O)c3c(c(O)c1C2=O)C[C@@](O)(C(=O)CO)C[C@@H]3O[C@H]1C[C@H](NC(=O)c2ccc(C=O)cc2)[C@H](O)[C@H](C)O1` [Compound 10, N-(4-formylbenzoyl)doxorubicin], for the setting “1 hour exposure, colony formation, read-out: IC50 against human ovarian carcinoma 2008 cells”, the negative logarithm of the IC50 (pIC50) is about 4.92.

As for `COc1cccc2c1C(=O)c1c(O)c3c(c(O)c1C2=O)C[C@@](O)(C(=O)CO)C[C@@H]3O[C@H]1C[C@H](N)[C@H](O)[C@H](C)O1` [doxorubicin, Doxorubicin, reference compound], the “IC50 fold lower than that of 10” value under setting [2] is given as over 10 fold.

For the compound “N-ethoxybenzylimidazole-doxorubicin Conjugate [Compound 9]”, the “IC50 fold higher than that of 10” value under setting [2] is 2 fold.
